Results on 13 compounds are retold here after US20240148895A1, “ANTIBODY-DRUG CONJUGATE” (Eisai R&D Management Co., Ltd., priority 2022, published 2024).

One experiment deals with T1, BRD4(BD1+BD2) protein (Homo sapiens, UniProt O60885).
T1 construct: 5 μL of BRD4(BD1+BD2) protein solution prepared to 3.6 ng/μL; purchased BPS Bioscience Inc. 32612
Briefly: BRD4 binding inhibition assay (TR-FRET). To be noted: BRD4(BD1+BD2) TR-FRET Assay Kit, reaction 2 hours at room temperature; read-out: IC50 (concentration necessary for 50% inhibition of BRD4 binding activity). How it is done: This assay measures binding inhibition activity of the test substance on the bromodomain of BRD4 protein.
BRD4 binding inhibition activity assay was carried out using a BRD4(BD1+BD2)TR-FRET Assay Kit (BPS Bioscience Inc. Catalog #32612), according to the attached instructions. In a flat-bottom 384-well white plate (Greiner 781080) there was added 8 μL of Tb-labeled donor/dye-labeled acceptor solution diluted 160-fold with 1×BRD TR-FRET Assay Buffer1, with 5 μL of BET Bromodomain Ligand diluted 40-fold with 1×BRD TR-FRET Assay Buffer1 in the test substance measuring wells and the Positive Control wells, and 5 μL of Non-acetylated Ligand1 diluted 40-fold with 1×BRD TR-FRET Assay Buffer1 in the Negative Control wells. After adding 2 μL of test substance diluted with 1×BRD TR-FRET Assay Buffer1 to the test substance measuring wells, and 2 μL of Dimethyl Sulfoxide solution diluted 100-fold with 1×BRD TR-FRET Assay Buffer1 to the Positive Control wells and Negative Control wells, 5 μL of BRD4(BD1+BD2) protein solution prepared to 3.6 ng/μL with 1×BRD TR-FRET Assay Buffer1 was added and reaction was conducted for 2 hours at room temperature. The fluorescence intensity was measured at 620 nm and 665 nm with irradiation of 340 nm excitation light into each well, using an Envision™ (Perkin-Elmer). The ratio of fluorescence intensity at […] with respect to fluorescence intensity at 620 nm for each well was recorded as the TR-FRET ratio, and the TR-FRET ratio in the presence of the test substance was calculated with the Positive Control well value as 100%, subtracting the Negative Control well value. The concentration of test substance necessary for 50% inhibition of BRD4 binding activity (IC50) was calculated from the TR-FRET ratio, and shown in Table 1.

The subject of experiment [1] is AsPC-1/Cas9 cell line (human pancreatic cancer cell line AsPC-1). The experiment in a line: AsPC-1/Cas9 growth inhibition assay. The format is cell-based. As to conditions: 5 days culture, CellTiter Glo 2.0, read-out: IC50 (Absolute IC50, 50% inhibition of cell growth). How it is done: Human pancreatic cancer cell line AsPC-1 (ATCC Number CRL1682) was infected with Edit-R Lentiviral hCMV-Blast-Cas9 Nuclease Particle (Dharmacon, VCAS10124) in the presence of 8 μg/ml of Hexadimethrine bromide (Sigma, H9268), and after 24 hours it was exposed to 10 μg/ml of Blastcidin S (Thermo, A11139) to remove the uninfected cells, thereby establishing an AsPC-1/Cas9 cell line. The cells were maintenance cultured in a 5% CO2 incubator (37° C.) using RPMI-1640 (FujiFilm-Wako Pure Chemical Industries) containing 10% fetal bovine serum (FBS: SIGMA 173012) and penicillin/streptomycin (FujiFilm-Wako Pure Chemical Industries) (hereunder referred to simply as “culture medium”). After adding 25 μL of AsPC-1/Cas9 cell suspension prepared to 3.2×10^4 cells/mL using culture medium into each well of a 384-well plate (Greiner 781091), the cells were cultured overnight in a 5% CO2 incubator (37° C.). On the following day, 25 μL of the test substance diluted with culture medium was added to each well, and culturing was continued for 5 days in a 5% CO2 incubator (37° C.). Next, 25 μL of CellTiter Glo™ 2.0 (Promega) was added to each well, and the plate contents were mixed for 5 minutes using a plate mixer. The plate was stationed for 10 minutes at room temperature while shielded from light, and then the luminous intensity was measured with an ENVISION™ (Perkin-Elmer). The luminescence value of the wells with addition of test substance was determined as a relative value, with 100% as the luminescence value of the wells with cells but without addition of the test substance and 0% as the luminescence value of the wells without cells. A plot of test substance concentration against luminescence value % approximated a 4-parameter logistic curve, and the test substance concentration necessary for 50% inhibition of cell growth (Absolute IC50) was calculated, and is shown in Table 10. In Table 10, the antibodies listed as “CEACAM6_#84.7” are the anti-CEACAM6 antibody of Example 301-1, the antibodies listed as “003” are the anti-folate receptor α antibody of Example 301-2, and the antibodies listed as “345A12” are the anti-mesothelin antibody of Example 301-3.
According the same method as in the AsPC-1/Cas9 growth inhibition assay described in Example 313 above, the test substance concentration necessary for 50% inhibition of cell growth (Absolute IC50) in the ADC described in Example 318 was calculated and is shown in Table 12.

A value given as a limit tells only on which side of the number the result lay.

In the case of `Cc1cc(-c2ccc3nc(N)nc(C(CO)(OC4CC4)c4ccccc4)c3c2)cn(C)c1=O` (stereo not shown) [Example 2, 5-(2-Amino-4-(1-cyclopropoxy-2-hydroxy-1-phenylethyl)quinazolin-6-yl)-1,3-dimethylpyridin-2(1H)-one], the IC50 at BRD4(BD1+BD2) protein stood at 26 nM. On to `COc1cc(=O)n(C)cc1-c1ccc2nc(N)nc(C(CO)(CC3CC3)c3cccnc3)c2c1` (stereo not shown) [Example 25, 5-(2-Amino-4-(1-cyclopropyl-3-hydroxy-2-(pyridin-3-yl)propan-2-yl)quinazolin-6-yl)-4-methoxy-1-methylpyridin-2(1H)-one], for which the IC50 on BRD4(BD1+BD2) protein was found to be 130 nM; in experiment [1] it was 0.057 nM. With `C#CC1CCN(c2nc(C(CO)(OC3CC3)c3ccccc3)c3cc(-c4cn(C)c(=O)c5[nH]ccc45)ccc3n2)CC1` (stereo not shown) [Example 26, 4-(4-(1-Cyclopropoxy-2-hydroxy-1-phenylethyl)-2-(4-ethynylpiperidin-1-yl)quinazolin-6-yl)-6-methyl-1,6-dihydro-7H-pyrrolo[2,3-c]pyridin-7-one], the IC50 at BRD4(BD1+BD2) protein was 47 nM; in experiment [1] it was 0.032 nM. As to `Cn1cc(-c2ccc3nc(N4CCC(N5CCC(C)(N)CC5)CC4)nc(C(CO)(OC4CC4)c4ccccc4)c3c2)c2cc[nH]c2c1=O` (stereo not shown) [Example 27, 4-(2-(4-Amino-4-methyl-[1,4′-bipiperidin]-1′-yl)-4-(1-cyclopropoxy-2-hydroxy-1-phenylethyl)quinazolin-6-yl)-6-methyl-1,6-dihydro-7H-pyrrolo[2,3-c]pyridin-7-one], the IC50 at BRD4(BD1+BD2) protein worked out at 80 nM. With `C[C@@H]1CN(CC2CCN(c3nc(C(CN)(OC4CC4)c4ccccc4)c4cc(-c5cn(C)c(=O)c6[nH]ccc56)ccc4n3)CC2)[C@@H](C)CN1` (stereo partly drawn) [Example 28, 4-(4-(2-Amino-1-cyclopropoxy-1-phenylethyl)-2-(4-(((2S,5R)-2,5-dimethylpiperazin-1-yl)methyl)piperidin-1-yl)quinazolin-6-yl)-6-methyl-1,6-dihydro-7H-pyrrolo[2,3-c]pyridin-7-one], the IC50 on BRD4(BD1+BD2) protein is 82 nM; in experiment [1], 0.023 nM.

In the case of `C#CCNC1(C)CCN(C2CCN(c3nc(C(CO)(OC4CC4)c4ccccc4)c4cc(-c5cn(C)c(=O)c6[nH]ccc56)ccc4n3)CC2)CC1` (stereo not shown) [Example 29, 4-(4-(1-Cyclopropoxy-2-hydroxy-1-phenylethyl)-2-(4-methyl-4-(prop-2-yn-1-ylamino)-[1,4′-bipiperidin]-1′-yl)quinazolin-6-yl)-6-methyl-1,6-dihydro-7H-pyrrolo[2,3-c]pyridin-7-one], the IC50 on BRD4(BD1+BD2) protein was found to be 57 nM; in experiment [1], 0.041 nM. Take `C#CC1(O)CCN(C2CCN(c3nc(C(CO)(OC4CC4)c4ccccc4)c4cc(-c5cn(C)c(=O)c6[nH]ccc56)ccc4n3)CC2)CC1` (stereo not shown) [Example 30]: the IC50 at BRD4(BD1+BD2) protein is 27 nM; in experiment [1], less than 0.015 nM. Take `C[C@@H]1CN(C2CCN(c3nc(C(CN)(OC4CC4)c4ccccc4)c4cc(-c5cn(C)c(=O)c6[nH]ccc56)ccc4n3)CC2)[C@@H](C)CN1` (stereo partly shown) [Example 31]: the IC50 on BRD4(BD1+BD2) protein was 61 nM; in experiment [1], 0.037 nM. As to `CCCC(CO)(CCC)c1nc(N2CCC(CN3CCNCC3)CC2)nc2ccc(-c3cn(C)c(=O)cc3OC)cc12` [Example 32, 5-(4-(4-(Hydroxymethyl)heptan-4-yl)-2-(4-(piperazin-1-ylmethyl)piperidin-1-yl)quinazolin-6-yl)-4-methoxy-1-methylpyridin-2(1H)-one], at BRD4(BD1+BD2) protein, the IC50 is 81 nM. In the case of `COc1cc(=O)n(C)cc1-c1ccc2nc(N3CCC(N4CCC(C)(N)CC4)CC3)nc(C(CO)(OC3CC3)c3cccc4ccccc34)c2c1` (stereo not shown) [Example 33, 5-(2-(4-Amino-4-methyl-[1,4′-bipiperidin]-1′-yl)-4-(1-cyclopropoxy-2-hydroxy-1-(naphthalen-1-yl)ethyl)quinazolin-6-yl)-4-methoxy-1-methylpyridin-2(1H)-one], the results for the IC50 (on BRD4(BD1+BD2) protein; in experiment [1]) were 440 nM and less than 0.015 nM, respectively. In the case of `CNCCN(C)C(=O)OCC(OC1CC1)(c1ccccc1)c1nc(N2CCC(CN3C[C@@H](C)NC[C@@H]3C)CC2)nc2ccc(-c3cn(C)c(=O)cc3OC)cc12` (stereo partly drawn) [Example 34, 2-Cyclopropoxy-2-(2-(4-(((2S,5R)-2,5-dimethylpiperazin-1-yl)methyl)piperidin-1-yl)-6-(4-methoxy-1-methyl-6-oxo-1,6-dihydropyridin-3-yl)quinazolin-4-yl)-2-phenylethyl methyl(2-(methylamino)ethyl)carbamate], the IC50 at BRD4(BD1+BD2) protein is 91 nM.

Consider `Cn1cc(-c2ccc3nc(N4CCC(OC5CCNCC5)CC4)nc(C(CO)(c4ccccc4)c4ccccc4)c3c2)c2ccoc2c1=O` [Example 35, 4-(4-(2-Hydroxy-1,1-diphenylethyl)-2-(4-(piperidin-4-yloxy)piperidin-1-yl)quinazolin-6-yl)-6-methylfuro[2,3-c]pyridine-7(6H)-one], for which the values for the IC50 (at BRD4(BD1+BD2) protein; in experiment [1]) were 87 nM and 0.038 nM, respectively. `Cc1cc(-c2ccc3nc(N)nc([C@@](CO)(OC4CC4)c4ccccc4)c3c2)cn(C)c1=O` [Example 36, (S)-5-(2-Amino-4-(1-cyclopropoxy-2-hydroxy-1-phenylethyl)quinazolin-6-yl)-1,3-dimethylpyridin-2(1H)-one]: the IC50 on BRD4(BD1+BD2) protein was found to be 25 nM; in experiment [1], 0.035 nM.
